We go through 4 molecules from paper PMC11978698, “Differential uptake of arginine derivatives by the human heteromeric amino acid transporter b^0,+AT-rBAT (SLC7A9-SLC3A1)” (Naunyn-Schmiedeberg's Archives of Pharmacology, 2024).

The target in data set [1] is T1, b0,+AT (SLC7A9), in the heteromeric transporter b0,+AT-rBAT (Homo sapiens, UniProt P82251).
T1 sequence (P82251 1-487): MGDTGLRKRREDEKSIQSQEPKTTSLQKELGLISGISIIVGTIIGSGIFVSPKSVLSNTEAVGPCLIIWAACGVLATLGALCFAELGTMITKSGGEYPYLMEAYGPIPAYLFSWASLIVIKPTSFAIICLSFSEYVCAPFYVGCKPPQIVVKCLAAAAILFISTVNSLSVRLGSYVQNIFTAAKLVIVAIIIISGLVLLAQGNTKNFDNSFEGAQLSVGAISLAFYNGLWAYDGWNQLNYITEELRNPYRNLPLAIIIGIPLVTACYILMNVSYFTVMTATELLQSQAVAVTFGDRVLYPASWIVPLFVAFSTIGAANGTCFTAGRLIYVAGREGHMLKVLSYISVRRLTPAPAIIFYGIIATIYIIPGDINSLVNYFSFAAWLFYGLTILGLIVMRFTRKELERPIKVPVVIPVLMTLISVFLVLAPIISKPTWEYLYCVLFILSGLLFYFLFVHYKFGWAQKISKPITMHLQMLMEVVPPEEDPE
T1 sequence (Q07837 1-685 partner): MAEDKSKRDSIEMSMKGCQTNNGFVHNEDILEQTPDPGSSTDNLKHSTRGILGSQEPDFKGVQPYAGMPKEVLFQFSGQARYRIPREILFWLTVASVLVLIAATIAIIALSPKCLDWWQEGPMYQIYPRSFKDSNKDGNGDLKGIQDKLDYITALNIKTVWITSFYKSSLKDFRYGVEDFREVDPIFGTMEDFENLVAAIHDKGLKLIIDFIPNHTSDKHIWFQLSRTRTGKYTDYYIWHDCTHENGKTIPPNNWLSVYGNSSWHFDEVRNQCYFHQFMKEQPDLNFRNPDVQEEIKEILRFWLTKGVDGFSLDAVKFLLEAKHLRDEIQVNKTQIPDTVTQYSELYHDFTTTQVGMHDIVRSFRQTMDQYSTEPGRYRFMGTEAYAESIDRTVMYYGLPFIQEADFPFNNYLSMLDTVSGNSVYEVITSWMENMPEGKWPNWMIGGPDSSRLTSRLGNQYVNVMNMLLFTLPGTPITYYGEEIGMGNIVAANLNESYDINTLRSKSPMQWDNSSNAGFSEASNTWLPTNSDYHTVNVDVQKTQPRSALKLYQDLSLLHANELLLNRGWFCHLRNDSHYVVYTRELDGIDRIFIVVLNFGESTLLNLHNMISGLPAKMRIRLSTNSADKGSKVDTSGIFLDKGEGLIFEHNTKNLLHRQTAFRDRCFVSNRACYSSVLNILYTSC
Particulars: read-out: radiolabeled uptake in double-transfected MDCK cells, not saturated up to 4000 μ.

For data set [2], the target named is T1, b0,+AT (SLC7A9), in the heteromeric transporter b0,+AT-rBAT. The data set is described as follows: inhibition of radiolabeled L-arginine ([…]), L-homoarginine and ADMA uptake by […] L-cystine in double-transfected MDCK cells. The data set is classed as cell-based. Also on record: human b0,+AT (NM_001126335) co-expressed with human rBAT (NM_000341.3) in MDCKII cells; with rBAT (SLC3A1).

Data set [3] shares this target. As to the kind of experiment: cell-based.
Substrate in data set [4]: N=C(N)NCCCC[C@H](N)C(=O)O
The data set is described as follows: cells, lysate or membranes.

With `CN(C)C(=N)NCCC[C@H](N)C(=O)O` [asymmetric dimethylarginine], in data set [1], the Km is over 4000 µM.

Consider `N[C@@H](CSSC[C@H](N)C(=O)O)C(=O)O` [L-cystine], for which the “inhibition of radiolabeled L-arginine (100 μM), L-homoarginine and ADMA uptake b” value in data set [2] is “the uptake of L-homoarginine (Fig. 9c) and ADMA (Fig. 9d) was significantly inhibited at the low tested concentrations”.

Usually IC50 stands for the concentration that gives 50% inhibition. Read a high IC50 as weaker potency. On to `N=C(N)NCCC[C@H](N)C(=O)O` [L-arginine], for which the IC50 in data set [3] worked out at 116 µM.

B1: b0,+AT (SLC7A9), in the heteromeric transporter b0,+AT-rBAT (Homo sapiens) (protein)
chain: MGDTGLRKRREDEKSIQSQEPKTTSLQKELGLISGISIIVGTIIGSGIFVSPKSVLSNTEAVGPCLIIWAACGVLATLGALCFAELGTMITKSGGEYPYLMEAYGPIPAYLFSWASLIVIKPTSFAIICLSFSEYVCAPFYVGCKPPQIVVKCLAAAAILFISTVNSLSVRLGSYVQNIFTAAKLVIVAIIIISGLVLLAQGNTKNFDNSFEGAQLSVGAISLAFYNGLWAYDGWNQLNYITEELRNPYRNLPLAIIIGIPLVTACYILMNVSYFTVMTATELLQSQAVAVTFGDRVLYPASWIVPLFVAFSTIGAANGTCFTAGRLIYVAGREGHMLKVLSYISVRRLTPAPAIIFYGIIATIYIIPGDINSLVNYFSFAAWLFYGLTILGLIVMRFTRKELERPIKVPVVIPVLMTLISVFLVLAPIISKPTWEYLYCVLFILSGLLFYFLFVHYKFGWAQKISKPITMHLQMLMEVVPPEEDPE
With B1, the Km in data set [4] was found to be 197.0 µM.
